In patent US20220218708A1, “METHODS FOR TREATING SMARCB1 DEFICIENT CANCER OR PAZOPANIB RESISTANT CANCER” (The Institute of Cancer Research:Royal Cancer Hospital, priority 2016, published 2022):

Key:
Assay type in all cases: cell-based
[1] = system: G402 cells (MRT cell line); assay: Cell viability (WST-1) dose response; conditions: for effect on cell viability: G402 cells, dose response; for IC50: Homo sapiens, G-402, G402, cell viability, 72 hours
Experimental: (§1) For SILAC experiments, A204 cells and resistant sublines were cultured in SILAC DMEM media (Thermo Fisher Scientific) supplemented with light lysine and arginine (ROKO) (Sigma) and heavy lysine and arginine (R10K8) (Goss Scientific) respectively.
(§2) 2000 cells/well were seeded in a 96-well plate and treated with inhibitors at the indicated dose and combinations for 24 h for apoptosis measurement by Caspase-Glo 3/7 Assay (Promega), or for 72 hours in cell viability measurements by WST-1 (Abcam), following the manufacturer's recommendations. IC50 data were generated from dose-response curves fitted using a four-parameter regression fit in PRISM 5 software (GraphPad).

[2] = system: A204 cells (parental, MRT cell line); assay: Cell viability (WST-1) dose response; conditions: for effect on cell viability: A204 cells, dose response; for IC50: Homo sapiens, cell viability
Experimental: as §1, §2

[3] = system: MRT cells (A204 and G402); assay: Apoptosis by Caspase-Glo 3/7 assay; conditions: caspase 3/7 activity
Experimental: as §2

[4] = system: ERK1/2 phosphorylation; assay: Immunoblot of ERK1/2 phosphorylation; conditions: MRT cells; drug treatment for 1 hour (FIG. 3H)
Experimental: (§3) After the indicated treatments, cells were lysed in RIPA lysis buffer at 4° C. Lysates were loaded onto SDS-PAGE gels followed by blotting onto PVDF membranes.
(§4) Details of antibodies, immunoprecipitation and immunofluorescence analyses are as follows. For immunoblotting, cells were lysed in RIPA lysis buffer supplemented with protease and phosphatase inhibitors (Thermo Pierce) at 4° C. Lysates were loaded onto SDS-PAGE gels followed by blotting onto PVDF membranes as described (Iwai et al., 2013). Blots were probed with primary antibodies followed by corresponding horseradish peroxidase-conjugated secondary antibodies. Primary antibodies include anti-PDGFRα #3174, CST; anti-pAKT (S473) #4058, CST; anti-AKT #4691, CST; anti-pERK-T202/Y204 #4370, CST; anti-ERK #9102, CST; anti-FGFR1 #76464, abcam; anti-BAF47 (SMARCB1) #61211, BD; anti-TFR #13-6890, ThermoFisherScientific; anti-pY1000 #8954, CST and anti-α-Tubulin #T5168, Sigma. Secondary antibodies include Polyclonal Goat Anti-Rabbit HRP #P0448, Dako and Anti-Mouse HRP #G32-62G-1000, Signalchem. Immunoreactive bands were visualized by chemiluminescence (Amersham) and the blots were exposed to x-ray XAR film (Kodak).

[5] = system: Pazopanib resistant A204 cells (PazR); assay: Cell viability in acquired resistant subline; conditions: Homo sapiens
Experimental: (§5) Cells were grown initially in DMEM media containing drug concentration of 500 nM. The drug was incremented when the cells had proliferated to near confluency alongside minimal visible cell death. Drug concentration was incremented from 2 μM, 3 μM and 5 μM in a stepwise manner over 6 weeks. A final drug concentration of 5 μM was maintained in resistant cells. Media and drug were replenished twice weekly.
as §2

[6] = system: AKT phosphorylation; assay: Immunoblot of AKT phosphorylation; conditions: MRT cells; drug treatment for 1 hour (FIG. 3H)
Experimental: as §3, §4

[7] = system: PazR cells; assay: Annexin V staining, automated imaging
Experimental: as §5
Details for annexin V staining and siRNA transfections are as follows. For Annexin V staining, 3000 cells/well were seeded into 96-well CellCarrier plates (Perkin Elmer). 24 h after seeding, drugs were added and incubated for an additional 48 h. FITC-Annexin V (BD Biosciences) and Hoechst 33342 (Tocris) diluted in 10× annexin binding buffer (0.1M HEPES, 1.4M NaCl, 25 mM CaCl2) was added and incubated at 37° C. for 15 minutes. Plates were imaged using an Operetta high-content imager (Perkin Elmer). Images were analysed using Harmony software (Perkin Elmer), and annexin positivity defined as number of annexin-FITC-positive cells relative to total number of Hoechst-positive nuclei. The interaction between drugs was analysed by the Chou and Talalay median effect principle as described (Todd et al., 2014). siRNA transfections were performed as follows, 2000 cells/well were reverse transfected in 96-well plates with SMARTpool siRNAs (Dharmacon) using Lullaby reagent (Oz Biosciences). Where indicated, cells were treated with vehicle or drug 24 h post transfection. Apoptosis and cell viability were measured using Caspase 3/7 Glo and Cell Titre Glo (Promega), respectively, 72-96 h post transfection according to manufacturer's instructions and normalised to cells transfected with a non-targeting siRNA pool.

[8] = system: SW684 cells; assay: Cell viability (WST-1) dose response; conditions: Homo sapiens, 72 hours
Experimental: (§6) Cells were cultured in DMEM (A204, G402, Saos2, U2OS, HT1080, SW684, SW872, SW982, Hs729T, RUCH-3, T9195 and AN3CA), RPMI (RMS-YM and SJSA-1) or McCoy5A (MES-SA) media supplemented with 10% FBS/2 mM glutamine/100 units/ml penicillin/[…] streptomycin in 95% air/5% CO2 atmosphere at 37° C. For SILAC experiments, A204 cells and resistant sublines were cultured in SILAC DMEM media (Thermo Fisher Scientific) supplemented with light lysine and arginine (ROKO) (Sigma) and heavy lysine and arginine (R10K8) (Goss Scientific) respectively.
as §2

[9] = system: RMS-YM cells; assay: Cell viability (WST-1) dose response; conditions: 72 hours
Experimental: as §6, §2

[10] = system: SJSA-1 cells; assay: Cell viability (WST-1) dose response; conditions: Homo sapiens, 72 hours
Experimental: as §6, §2

[11] = system: MES-SA cells; assay: Cell viability (WST-1) dose response; conditions: Homo sapiens, 72 hours
Experimental: as §6, §2

[12] = system: SW872 cells; assay: Cell viability (WST-1) dose response; conditions: Homo sapiens, 72 hours
Experimental: as §6, §2

[13] = system: SAOS2 cells; assay: Cell viability (WST-1) dose response; conditions: Homo sapiens, SAOS-2, 72 hours
Experimental: as §6, §2

[14] = system: U2OS cells; assay: Cell viability (WST-1) dose response; conditions: Homo sapiens, 72 hours
Experimental: as §6, §2

[15] = system: SW982 cells; assay: Cell viability (WST-1) dose response; conditions: Homo sapiens, 72 hours
Experimental: as §6, §2

[16] = system: Hs729T cells; assay: Cell viability (WST-1) dose response; conditions: 72 hours
Experimental: as §6, §2

[17] = system: RUCH-3 cells; assay: Cell viability (WST-1) dose response; conditions: 72 hours
Experimental: as §6, §2

[18] = system: T91-95 cells; assay: Cell viability (WST-1) dose response; conditions: 72 hours
Experimental: as §6, §2

[19] = system: HT1080 cells; assay: Cell viability (WST-1) dose response; conditions: Homo sapiens, HT-1080, 72 hours
Experimental: as §6, §2

[20] = system: Sunitinib resistant A204 cells (SunR); assay: Cell viability in acquired resistant subline; conditions: Homo sapiens
Experimental: as §5, §2

[21] = system: Dasatinib resistant A204 cells (DasR); assay: Cell viability in acquired resistant subline; conditions: Homo sapiens
Experimental: as §5, §2

[22] = target: T1, PDGFRα phosphorylation (Homo sapiens, UniProt P16234); assay: Immunoprecipitation of PDGFRα and phosphotyrosine immunoblot; conditions: A204 cells; 1 μM for 1 hour
T1 construct: Immunoprecipitation of PDGFRα followed by immunoblotting with phosphotyrosine-specific antibody (PY1000) in A204 cells; endogenous in cells; host or cells: A204 cells
T1 sequence (P16234 24-1089): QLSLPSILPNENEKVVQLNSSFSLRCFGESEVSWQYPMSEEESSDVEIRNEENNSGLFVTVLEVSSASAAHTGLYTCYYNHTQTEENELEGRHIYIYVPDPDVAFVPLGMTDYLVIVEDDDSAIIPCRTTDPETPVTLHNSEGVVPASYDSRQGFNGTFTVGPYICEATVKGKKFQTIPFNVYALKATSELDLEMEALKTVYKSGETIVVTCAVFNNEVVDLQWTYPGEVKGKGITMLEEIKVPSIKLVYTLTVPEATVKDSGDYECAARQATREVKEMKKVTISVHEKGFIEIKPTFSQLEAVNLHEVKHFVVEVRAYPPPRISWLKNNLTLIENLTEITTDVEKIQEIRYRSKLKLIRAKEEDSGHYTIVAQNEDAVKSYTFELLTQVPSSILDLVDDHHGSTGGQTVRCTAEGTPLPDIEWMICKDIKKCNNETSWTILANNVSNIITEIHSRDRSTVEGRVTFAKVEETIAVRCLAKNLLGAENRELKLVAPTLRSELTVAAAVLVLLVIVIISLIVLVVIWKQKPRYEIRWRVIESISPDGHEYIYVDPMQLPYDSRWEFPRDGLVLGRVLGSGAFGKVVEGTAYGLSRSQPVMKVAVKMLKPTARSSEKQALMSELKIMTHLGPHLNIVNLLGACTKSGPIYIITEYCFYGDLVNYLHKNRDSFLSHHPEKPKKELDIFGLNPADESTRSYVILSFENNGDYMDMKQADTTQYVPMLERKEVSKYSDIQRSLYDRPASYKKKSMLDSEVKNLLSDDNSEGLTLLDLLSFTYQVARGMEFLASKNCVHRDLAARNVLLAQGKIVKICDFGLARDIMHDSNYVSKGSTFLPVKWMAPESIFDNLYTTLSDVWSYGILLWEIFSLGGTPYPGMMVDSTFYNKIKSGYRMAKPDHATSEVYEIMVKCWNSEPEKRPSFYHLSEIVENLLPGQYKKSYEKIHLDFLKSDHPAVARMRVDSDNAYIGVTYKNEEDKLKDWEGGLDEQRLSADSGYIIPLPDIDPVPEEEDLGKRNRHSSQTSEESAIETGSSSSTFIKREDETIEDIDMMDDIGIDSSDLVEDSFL
Experimental: For immunoprecipitation, cells were lysed in RIPA lysis buffer (contained 1% Triton) supplemented with protease and phosphatase inhibitors (Thermo Pierce) at 4° C. After microcentrifugation at 2,000 rpm. for 10 min, 200 μg of lysate was diluted in 200 ul lysis buffer. […] Protein G plus agarose beads were added and incubated for three hours at 4° C. to collect immune complexes, washed five times with lysis buffer and eluted in sample buffer. Proteins were resolved by SDS-PAGE, transferred to PVDF membrane and immunoblotting was performed as described above.

[23] = 72 h, Pazopanib resistant A204 cell line, single and combination drug treatment, Table S3
[24] = A204 Pazopanib resistant subline, cell viability, Table S2

IC50 [8] [µM]	IC50 [10] [µM]	IC50 [12] [µM]	IC50 [14] [µM]	IC50 [15] [µM]	IC50 [19] [µM]	Molecule	effect on cell viability [2]	IC50 [5, 23] [µM]	proportion of apoptotic cells compared to vehicle control [7]	IC50 [1] [µM]	IC50 ([2]; A204, 72 hours, Table S1) [µM]	IC50 ([2]; A204 Parental, Table S2) [µM]	IC50 [9] [µM]	IC50 [11] [µM]	IC50 [13] [µM]	IC50 [16] [µM]	IC50 [17] [µM]	IC50 [18] [µM]	IC50 [20] [µM]	IC50 [21] [µM]	other results
0.0624	> 10	1.04	> 10	0.188	> 10	Cc1nc(Nc2ncc(C(=O)Nc3c(C)cccc3Cl)s2)cc(N2CCN(CCO)CC2)n1 [Dasatinib, dasatinib]	–	–	–	0.0623	0.0418	0.0418	> 10	> 10	1.15	> 10	> 10	> 10	> 10	> 10	IC50 [5, 24]: > 10 µM
> 10	> 10	> 10	> 10	> 10	> 10	Cc1ccc(Nc2nccc(N(C)c3ccc4c(C)n(C)nc4c3)n2)cc1S(N)(=O)=O [Pazopanib, pazopanib]	–	> 10	no effect	0.238	0.219	0.245	> 10	> 10	> 10	> 10	> 10	> 10	> 10	> 10	IC50 [5, 24]: > 10 µM
> 10	> 10	> 10	> 10	0.582	> 10	CCN(CC)CCNC(=O)c1c(C)[nH]c(/C=C2\C(=O)Nc3ccc(F)cc32)c1C [Sunitinib, sunitinib]	–	–	–	0.0369	0.0363	0.0363	> 10	> 10	4.57	> 10	> 10	> 10	> 10	5.01	IC50 [5, 24]: > 10 µM

Further lines, the molecule ahead of its results:

Molecule	IC50 [8] [µM]	IC50 [10] [µM]	IC50 [12] [µM]	IC50 [14] [µM]	IC50 [15] [µM]	IC50 [19] [µM]	effect on cell viability [2]	IC50 [5, 23] [µM]	proportion of apoptotic cells compared to vehicle control [7]	IC50 [1] [µM]	IC50 ([2]; A204, 72 hours, Table S1) [µM]	IC50 ([2]; A204 Parental, Table S2) [µM]	IC50 [9] [µM]	IC50 [11] [µM]	IC50 [13] [µM]	IC50 [16] [µM]	IC50 [17] [µM]	IC50 [18] [µM]	IC50 [20] [µM]	IC50 [21] [µM]	other results
AZD4547	–	–	–	–	–	–	ineffective	–	–	–	–	–	–	–	–	–	–	–	–	–	effect on cell viability [1]: ineffective
Cc1ccc(C(=O)Nc2ccc(CN3CCN(C)CC3)c(C(F)(F)F)c2)cc1C#Cc1cnc2cccnn12 [Ponatinib, 3-(2-imidazo[1,2-b]pyridazin-3-ylethynyl)-4-methyl-N-[4-[(4-methyl-1-piperazinyl)methyl]-3-(trifluoromethyl)phenyl]-benzamide]	–	–	–	–	–	–	sensitive	0.272	significant increase	–	–	–	–	–	–	–	–	–	–	–	apoptosis [3]: enhanced apoptosis; ERK1/2 phosphorylation [4]: suppression; effect on cell viability [1]: sensitive; AKT phosphorylation [6]: suppression
CCN1CCN(c2ccc(Nc3cc(N(C)C(=O)Nc4c(Cl)c(OC)cc(OC)c4Cl)ncn3)cc2)CC1 [BGJ398]	–	–	–	–	–	–	reduced viability	0.247	significant increase	–	–	–	–	–	–	–	–	–	–	–	ERK1/2 phosphorylation [4]: decreased; PDGFRα phosphorylation [22]: no effects; AKT phosphorylation [6]: no effect
